Experimental data published in publication PMC6525040 (ChemMedChem, 2019).

Experiments:
[1] = biological target: T1, Human RAD51 protein binding to ssDNA (Homo sapiens, UniProt Q06609); assay: RAD51-DNA binding assay; conditions: gel shift, 0.5 μM RAD51
T1 sequence (Q06609 1-339): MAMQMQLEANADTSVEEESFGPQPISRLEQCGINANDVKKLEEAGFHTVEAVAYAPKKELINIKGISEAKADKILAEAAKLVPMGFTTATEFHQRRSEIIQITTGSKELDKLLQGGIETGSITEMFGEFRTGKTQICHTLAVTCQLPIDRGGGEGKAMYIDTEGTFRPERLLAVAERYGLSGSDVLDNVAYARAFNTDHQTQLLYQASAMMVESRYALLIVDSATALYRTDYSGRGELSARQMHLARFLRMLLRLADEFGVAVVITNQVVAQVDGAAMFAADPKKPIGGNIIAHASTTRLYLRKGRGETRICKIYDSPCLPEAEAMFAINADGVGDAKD

[2] = tested on: relaxed covalently-closed circular dsDNA plasmid (pRS306); assay: dsDNA intercalation assay; format: binding; conditions: 10 μM; DMSO vehicle defined as 0, saturation of the endpoint = 1

Row | Structure (SMILES) | effect on RAD51 binding to ssDNA / RAD51-ssDNA nucleoprotein filaments (in words) [1] | intercalation score [2]
1 | O=C1C(Cl)=C(N2CCOCC2)C(=O)N1c1ccc(Cl)c(Cl)c1 [RI-1] | inhibited | 
2 | CCN(CC)CCCC(C)Nc1ccnc2cc(Cl)ccc12 (centres unmarked) [chloroquine] |  | 1
